≈ marks a conversion by molar mass, not a printed value. Where “and” joins values, the source holds several entries; their conditions need not be identical. Identical values can stand only once.
Experiments:
PC-9 = experiment: In vitro cell based assay, anti-proliferation GI50, PC-9; conditions: EGFR 19Del
Ba/F3_NPH = experiment: In vitro cell based assay, anti-proliferation GI50, Ba/F3_NPH; conditions: EGFR H773_V774insNPH
EGFR H773_V774insNPH = target: T1, EGFR H773_V774insNPH (Homo sapiens, UniProt P00533, INS773NPH); experiment: In vitro cell based assay, PD IC50, Ba/F3_NPH
T1 construct: expressed in transfected cells; host or cells: Ba/F3 (Ba/F3_NPH)
T1 sequence (P00533 with tags, fused parts or gaps INS773NPH): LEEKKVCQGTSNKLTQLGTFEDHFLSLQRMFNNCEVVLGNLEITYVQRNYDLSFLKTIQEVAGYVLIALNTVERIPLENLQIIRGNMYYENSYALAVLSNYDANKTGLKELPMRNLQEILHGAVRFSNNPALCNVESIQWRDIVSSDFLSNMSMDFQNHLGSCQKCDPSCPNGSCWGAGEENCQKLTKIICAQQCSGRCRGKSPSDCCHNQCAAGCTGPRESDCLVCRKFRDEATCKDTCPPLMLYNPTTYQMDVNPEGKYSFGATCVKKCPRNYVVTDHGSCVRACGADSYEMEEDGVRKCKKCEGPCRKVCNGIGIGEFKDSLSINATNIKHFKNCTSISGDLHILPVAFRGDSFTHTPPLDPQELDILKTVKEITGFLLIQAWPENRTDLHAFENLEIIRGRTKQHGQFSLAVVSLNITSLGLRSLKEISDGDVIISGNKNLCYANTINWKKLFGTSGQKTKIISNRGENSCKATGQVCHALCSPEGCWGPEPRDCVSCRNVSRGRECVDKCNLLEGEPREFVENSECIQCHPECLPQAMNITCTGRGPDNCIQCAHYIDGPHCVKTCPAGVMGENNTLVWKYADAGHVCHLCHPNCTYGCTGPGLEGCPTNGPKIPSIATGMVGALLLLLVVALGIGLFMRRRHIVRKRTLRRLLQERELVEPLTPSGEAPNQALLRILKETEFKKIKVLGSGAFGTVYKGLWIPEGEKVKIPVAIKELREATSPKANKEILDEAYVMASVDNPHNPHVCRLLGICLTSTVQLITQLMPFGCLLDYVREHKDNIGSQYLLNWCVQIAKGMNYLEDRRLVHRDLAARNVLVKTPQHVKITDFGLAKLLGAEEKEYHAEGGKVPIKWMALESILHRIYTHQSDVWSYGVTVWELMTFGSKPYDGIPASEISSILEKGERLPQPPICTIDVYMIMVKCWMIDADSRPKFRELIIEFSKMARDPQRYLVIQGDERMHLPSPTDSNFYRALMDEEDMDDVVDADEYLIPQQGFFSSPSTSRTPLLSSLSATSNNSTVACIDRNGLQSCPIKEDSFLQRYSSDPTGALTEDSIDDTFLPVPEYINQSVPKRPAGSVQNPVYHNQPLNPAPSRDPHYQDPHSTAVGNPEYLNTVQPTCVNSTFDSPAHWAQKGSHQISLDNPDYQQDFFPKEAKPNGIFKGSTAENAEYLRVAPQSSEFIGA

[1] = Dynamic moisture sorption analysis (DVS); type: physicochemical
Method: DVS was determined using DVS Advantage-1 or Intrinsic (SMS, UK). The sample was tested at a targeted RH of 10 to 90% full cycle in step mode. The analysis was performed in 10% RH increments. Equilibrium:60 min RH (%) measurement points: First cycle: 0, 10, 20, 30, 40, 50, 60, 70, 80, 90. Second cycle: 90, 80, 70, 60, 50, 40, 30, 20, 10, 0.

HER2 A775_G776insYVMA = target: T2, HER2 A775_G776insYVMA (Homo sapiens, UniProt P04626, INS775YVMA); experiment: In vitro cell based assay, PD IC50, 3T3_YVMA
T2 construct: expressed in transfected cells; host or cells: 3T3 (3T3_YVMA)
T2 sequence (P04626 with tags, fused parts or gaps INS775YVMA): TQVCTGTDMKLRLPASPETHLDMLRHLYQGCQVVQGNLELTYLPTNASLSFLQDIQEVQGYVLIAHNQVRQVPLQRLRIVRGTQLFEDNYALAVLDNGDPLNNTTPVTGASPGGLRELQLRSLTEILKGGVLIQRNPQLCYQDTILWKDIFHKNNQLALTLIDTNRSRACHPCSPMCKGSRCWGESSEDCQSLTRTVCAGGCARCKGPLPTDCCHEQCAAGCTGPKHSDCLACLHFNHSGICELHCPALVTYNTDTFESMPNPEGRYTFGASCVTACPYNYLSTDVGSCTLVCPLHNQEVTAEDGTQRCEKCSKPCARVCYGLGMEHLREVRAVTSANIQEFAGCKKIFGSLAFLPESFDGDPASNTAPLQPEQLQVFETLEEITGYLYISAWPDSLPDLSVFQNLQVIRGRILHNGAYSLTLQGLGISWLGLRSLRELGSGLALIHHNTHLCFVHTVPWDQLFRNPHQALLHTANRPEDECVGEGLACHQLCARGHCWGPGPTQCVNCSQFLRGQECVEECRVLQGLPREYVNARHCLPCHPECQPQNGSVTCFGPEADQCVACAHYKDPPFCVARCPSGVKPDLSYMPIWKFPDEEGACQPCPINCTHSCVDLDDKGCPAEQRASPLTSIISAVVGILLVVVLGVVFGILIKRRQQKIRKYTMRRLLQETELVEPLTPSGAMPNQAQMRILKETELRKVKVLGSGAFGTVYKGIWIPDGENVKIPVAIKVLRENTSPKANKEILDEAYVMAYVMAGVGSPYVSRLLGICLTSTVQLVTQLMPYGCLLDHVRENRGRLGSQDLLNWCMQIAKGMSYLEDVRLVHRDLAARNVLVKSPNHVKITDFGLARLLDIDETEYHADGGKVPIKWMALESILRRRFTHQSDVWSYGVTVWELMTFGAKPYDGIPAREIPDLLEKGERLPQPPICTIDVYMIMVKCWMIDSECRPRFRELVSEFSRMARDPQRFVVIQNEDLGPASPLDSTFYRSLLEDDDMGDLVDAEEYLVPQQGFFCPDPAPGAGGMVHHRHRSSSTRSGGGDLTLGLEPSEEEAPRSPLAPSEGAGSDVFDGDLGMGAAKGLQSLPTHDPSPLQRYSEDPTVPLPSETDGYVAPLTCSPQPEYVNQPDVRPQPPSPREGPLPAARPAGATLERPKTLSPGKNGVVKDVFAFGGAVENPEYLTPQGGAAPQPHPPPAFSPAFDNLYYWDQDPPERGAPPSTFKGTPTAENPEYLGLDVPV

EGFR Wildtype = target: T3, EGFR Wildtype (Homo sapiens, UniProt P00533); experiment: In vitro cell based assay, PD IC50, A431
T3 construct: Form A and B in vitro cell based assay; endogenous in cells; host or cells: A431
T3 sequence (P00533 25-1210): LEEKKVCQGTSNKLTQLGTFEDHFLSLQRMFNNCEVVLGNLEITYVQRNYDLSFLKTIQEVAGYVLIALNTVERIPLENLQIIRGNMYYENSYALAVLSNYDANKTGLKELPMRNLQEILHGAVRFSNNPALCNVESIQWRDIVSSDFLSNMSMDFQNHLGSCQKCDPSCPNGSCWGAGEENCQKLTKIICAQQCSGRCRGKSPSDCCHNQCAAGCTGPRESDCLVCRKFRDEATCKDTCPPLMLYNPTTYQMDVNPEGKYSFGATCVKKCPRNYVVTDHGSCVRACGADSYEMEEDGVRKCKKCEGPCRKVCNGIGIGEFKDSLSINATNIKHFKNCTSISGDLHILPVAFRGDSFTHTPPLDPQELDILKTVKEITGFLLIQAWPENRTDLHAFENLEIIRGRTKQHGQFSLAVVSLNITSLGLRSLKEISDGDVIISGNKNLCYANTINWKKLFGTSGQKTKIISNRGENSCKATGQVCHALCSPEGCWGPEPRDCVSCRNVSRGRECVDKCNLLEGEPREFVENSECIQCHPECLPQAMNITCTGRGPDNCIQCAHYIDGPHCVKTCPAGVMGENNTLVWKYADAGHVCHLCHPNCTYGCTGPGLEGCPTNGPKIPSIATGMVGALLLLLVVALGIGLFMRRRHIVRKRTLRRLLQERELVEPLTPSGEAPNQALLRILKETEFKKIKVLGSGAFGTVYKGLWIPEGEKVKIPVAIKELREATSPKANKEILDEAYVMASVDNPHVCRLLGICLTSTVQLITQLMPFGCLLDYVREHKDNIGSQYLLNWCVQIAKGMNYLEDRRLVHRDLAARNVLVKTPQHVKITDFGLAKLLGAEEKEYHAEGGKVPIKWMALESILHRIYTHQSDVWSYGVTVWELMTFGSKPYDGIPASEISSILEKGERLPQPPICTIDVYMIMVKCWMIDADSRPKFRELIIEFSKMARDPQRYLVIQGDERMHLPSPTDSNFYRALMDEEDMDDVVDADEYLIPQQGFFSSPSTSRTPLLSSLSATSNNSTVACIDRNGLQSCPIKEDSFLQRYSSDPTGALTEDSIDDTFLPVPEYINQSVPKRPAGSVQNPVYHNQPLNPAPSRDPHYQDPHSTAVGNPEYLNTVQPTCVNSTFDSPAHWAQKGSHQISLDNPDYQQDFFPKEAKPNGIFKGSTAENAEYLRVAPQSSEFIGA

[2] = Solubility in bio-relevant media; type: physicochemical; conditions: for pH value at 24 h: solubility sample at 24 h
3T3_YVMA = experiment: In vitro cell based assay, anti-proliferation GI50, 3T3_YVMA; conditions: HER2 A775_G776insYVMA
[3] = Stability in storage for Form B (XRPD, DSC); type: physicochemical; conditions: stored at 2-8° C. for at least 20 d
A431 = experiment: In vitro cell based assay, anti-proliferation GI50, A431; conditions: EGFR Wildtype
[4] = PK study of Form A and Form B in Rat; type: in vivo
[5] = PK study of Form A and Form B in Dog; type: in vivo; conditions: 10 mg/kg
[6] = Water activity study of Form A and Form B (slurry, XRPD); type: physicochemical; conditions: 24~27° C. (before dry)
Method: To study the effects of water on the stability of Form A and Form B, slurry experiments in the systems with different water activity were carried out. Form A or Form B was suspended separately in different water activity systems (Table 4). […] Residual solids were filtered and then dried in the vacuum oven at 45° C. for 8-24 hours. Dry solids were characterized by XRPD.

EGFR 19Del = target: T4, EGFR 19Del (Homo sapiens, UniProt P00533, DEL746-750); experiment: In vitro cell based assay, PD IC50, PC-9
T4 construct: Form A and B in vitro cell based assay; endogenous in cells; host or cells: PC-9
T4 sequence (P00533 with tags, fused parts or gaps DEL746-750): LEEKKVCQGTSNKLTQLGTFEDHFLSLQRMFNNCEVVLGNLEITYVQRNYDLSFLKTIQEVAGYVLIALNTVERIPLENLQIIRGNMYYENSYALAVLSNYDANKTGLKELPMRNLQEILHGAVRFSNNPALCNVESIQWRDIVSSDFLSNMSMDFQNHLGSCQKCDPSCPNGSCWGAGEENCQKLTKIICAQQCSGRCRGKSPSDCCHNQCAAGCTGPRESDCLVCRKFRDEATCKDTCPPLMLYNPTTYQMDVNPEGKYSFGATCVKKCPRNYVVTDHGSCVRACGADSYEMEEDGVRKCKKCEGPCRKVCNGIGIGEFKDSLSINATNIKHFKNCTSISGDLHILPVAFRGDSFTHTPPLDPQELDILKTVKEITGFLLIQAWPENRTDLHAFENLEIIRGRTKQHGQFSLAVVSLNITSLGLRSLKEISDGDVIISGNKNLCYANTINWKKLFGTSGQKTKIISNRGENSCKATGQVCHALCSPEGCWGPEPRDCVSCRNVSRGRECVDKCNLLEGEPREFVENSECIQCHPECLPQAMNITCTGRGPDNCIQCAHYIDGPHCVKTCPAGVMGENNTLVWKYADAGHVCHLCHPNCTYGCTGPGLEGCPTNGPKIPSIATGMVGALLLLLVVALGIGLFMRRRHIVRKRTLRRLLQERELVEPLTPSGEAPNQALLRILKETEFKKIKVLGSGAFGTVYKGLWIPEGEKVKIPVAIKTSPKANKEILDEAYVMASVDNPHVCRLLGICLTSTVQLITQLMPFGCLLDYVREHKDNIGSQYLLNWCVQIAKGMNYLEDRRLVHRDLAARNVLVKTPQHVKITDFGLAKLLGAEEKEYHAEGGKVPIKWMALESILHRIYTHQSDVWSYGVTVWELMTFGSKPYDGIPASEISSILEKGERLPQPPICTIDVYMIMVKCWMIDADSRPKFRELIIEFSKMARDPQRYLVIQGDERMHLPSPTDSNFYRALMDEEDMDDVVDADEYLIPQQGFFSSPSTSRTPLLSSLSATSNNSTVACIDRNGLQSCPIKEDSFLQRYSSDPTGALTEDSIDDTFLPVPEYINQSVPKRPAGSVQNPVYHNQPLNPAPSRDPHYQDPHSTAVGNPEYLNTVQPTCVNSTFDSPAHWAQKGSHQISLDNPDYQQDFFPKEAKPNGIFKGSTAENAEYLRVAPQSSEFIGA

[7] = Solubility in organic solvents and water; type: physicochemical; conditions: r.t.
[8] = Milling study of Form B (grinding and jet milling); type: physicochemical
Method: Grinding and jet milling were carried out. About 10 mg Form B was added into mortar and grinded by pestle for 1 min and 2 min. Jet milling of Form B in 500 mg scale was performed. Samples before and after grinding and milling were analyzed by XRPD. • Instrument: Jet mill (Equipment number: PPD-OAJ-1) • Feeding speed: Manual • Feeding pressure: 0.3˜0.6 MPa • Milling One Pressure: 0.4˜0.8 MPa • Milling Two Pressure: 0.4˜0.8 MPa
Grinding and jet milling were carried out to test physical stability of Form B in the milling process. As shown in XRPD results of obtained solids after grinding (FIG. 25), jet milling (FIG. 24), and DSC profile after jet milling (FIG. 26), the crystallinity decreased after grinding, but the crystal form of Form B was unchanged after milling and grinding.

EGFR L858R/T790M = target: T5, EGFR L858R/T790M (Homo sapiens, UniProt P00533, L858R/T790M); experiment: In vitro cell based assay, PD IC50, NCI-H1975
T5 construct: Form A and B in vitro cell based assay; endogenous in cells; host or cells: NCI-H1975

NCI-H1975 = experiment: In vitro cell based assay, anti-proliferation GI50, NCI-H1975; conditions: EGFR L858R/T790M
[9] = Form A and Form B inter-conversion study (competitive slurry, XRPD); type: physicochemical
Method: Competitive slurry experiments were conducted to evaluate the relative stability of Form A and Form B. Inter-conversion study was performed at room temperature and 50° C. using single and binary solvents listed in the Table 1 below. About 80 mg (100 mg for 50° C.) of Form A and Form B (1:1, w/w) was weighed into sample vials (8 mL) and then 3 mL (2 mL for 50° C.) of solvents were added to each vial. The obtained suspensions were kept stirring for 7 days at room temperature and 50° C., then filtered at specified time. The wet and dried solids were analyzed by XRPD (dried in vacuum oven at 45° C.).
Form B was dominant in tested solvent systems with water activity below 0.15 at room temperature (24˜27° C.). […] Pure Form A and Form B were stable during drying process (50° C., vacuum) for at least 2 days.

- GI50 (PC-9): 4.23 nM
- GI50 (Ba/F3_NPH): 66.3 nM
- IC50 (EGFR H773_V774insNPH): 35.2 nM
- DVS (ΔW %, 80% RH) [1]: 0.04%
- IC50 (HER2 A775_G776insYVMA): 3.26 nM
- IC50 (EGFR Wildtype): 54.1 nM
- solubility at 0.5 h ([2]; FaSSIF): 150 µg/mL (≈ 257 µM)
- solubility at 2 h ([2]; FaSSIF, 2 h): 160 µg/mL (≈ 274 µM)
- solubility at 24 h ([2]; FaSSIF, 24 h): 240 µg/mL (≈ 411 µM)
- pH value at 24 h ([2]; FaSSIF): 6.43
- solubility at 0.5 h ([2]; FeSSIF): 3180 µg/mL (≈ 5440 µM)
- Solubility ([2]; FeSSIF, 2 h): 2290 µg/mL (≈ 3920 µM)
- solubility at 24 h ([2]; FeSSIF, 24 h): 11200 µg/mL (≈ 19200 µM)
- pH value at 24 h ([2]; FeSSIF): 5.50
- solubility at 0.5 h ([2]; SGF, simulated gastric fluid): 23500 µg/mL (≈ 40300 µM)
- solubility at 2 h ([2]; SGF, simulated gastric fluid, 2 h): 24200 µg/mL (≈ 41400 µM)
- solubility at 24 h ([2]; SGF, simulated gastric fluid, 24 h): 25800 µg/mL (≈ 44100 µM)
- pH value at 24 h ([2]; SGF): 5.15
- solubility at 0.5 h ([2]; SIF, fassgf or other biorelevant): 18 µg/mL (≈ 30.8 µM)
- solubility at 2 h ([2]; SIF, fassgf or other biorelevant, 2 h): 25 µg/mL (≈ 42.8 µM)
- Solubility ([2]; SIF, 24 h): 520 µg/mL (≈ 890 µM)
- pH value at 24 h ([2]; SIF): 6.67
- Form change after storage (XRPD, DSC) [3]: no form change observed
- GI50 (A431): 45.9 nM
- Mean AUC0~48 ([4]; 25 mg/kg): 2678 ng·h/mL
- Mean Cmax ([4]; 25 mg/kg): 299 ng/mL
- Mean t1/2 ([4]; 25 mg/kg): 4.1 h
- Median Tmax ([4]; 25 mg/kg): 8.0 h
- Mean AUC0~48 ([4]; 75 mg/kg): 8433 ng·h/mL
- Mean Cmax ([4]; 75 mg/kg): 672 ng/mL
- Mean t1/2 ([4]; 75 mg/kg): 5.8 h
- Median Tmax ([4]; 75 mg/kg): 4.0 h
- XRPD results of slurry in different water activity solvent ([6]; 0% water/acetone, water activity 0, 1 d): Form B
- XRPD results of slurry in different water activity solvent ([6]; 0% water/acetone, water activity 0, 3 d): Form B
- XRPD results of slurry in different water activity solvent ([6]; 0% water/acetone, water activity 0, 7 d): Form B
- XRPD results of slurry in different water activity solvent ([6]; 3% water/acetone, water activity 0.312, 3 d): Form B
- XRPD results of slurry in different water activity solvent ([6]; 3% water/acetone, water activity 0.312, 7 d): Form B
- XRPD results of slurry in different water activity solvent ([6]; 30% water/acetone, water activity 0.747, 1 d): Form B
- XRPD results of slurry in different water activity solvent ([6]; 30% water/acetone, water activity 0.747, 3 d): Form B
- XRPD results of slurry in different water activity solvent ([6]; 30% water/acetone, water activity 0.747, 7 d): Form B
- XRPD results of slurry in different water activity solvent ([6]; water, 7 d): Form B
- IC50 (EGFR 19Del): 2.29 nM
- Solubility ([7]; Acetone): S < 5.88 mg/ml
- Solubility ([7]; Acetonitrile): S < 0.97 mg/ml
- Solubility ([7]; Ethyl acetate): S < 1.06 mg/ml
- Solubility ([7]; Isopropanol): S ~ 4.677 mg/ml
- Solubility ([7]; MTBE): S < 1.57 mg/ml
- Solubility ([7]; MeOH): 24.00 < S mg/ml
- Solubility ([7]; THF): 12.70 < S mg/ml
- Solubility ([7]; water): S < 2.73 mg/ml
- Crystallinity after grinding (XRPD) ([8]; grinding): decreased
- Crystal form after milling and grinding (XRPD, DSC) ([8]; grinding 1 min and 2 min, jet milling): unchanged
- IC50 (EGFR L858R/T790M): 2.07 nM
- GI50 (NCI-H1975): 1.45 nM
- Stability of pure form during drying process ([9]; 50° C., vacuum, at least 2 days): stable
- Relative stability of Form A and Form B in competitive slurry ([9]; 50° C., all the tested solvent systems except pure water): more stable than Form A
- Relative stability of Form A and Form B in competitive slurry ([9]; tested solvent systems with water activity below 0.15, room temperature (24~27° C.)): dominant
Compound: C=CC(=O)Nc1cc(Nc2nccc(Nc3cc(Cl)c(F)cc3C(C)(C)O)n2)c(OC)cc1N1CC[C@@H](N(C)C)C1 [Form B, (R)-N-(5-((4-((5-chloro-4-fluoro-2-(2-hydroxypropan-2-yl)phenyl)amino)pyrimidin-2-yl)amino)-2-(3-(dimethylamino)pyrrolidin-1-yl)-4-methoxyphenyl)acrylamide]
- GI50 (3T3_YVMA): 44.5 nM
- AUC0-24 h ([5]; Female (individual animals)): 3.14 hr*μM/(mg/kg) and 3.75 hr*μM/(mg/kg)
- AUC0-24 h ([5]; Male (individual animals)): 2.88 hr*μM/(mg/kg) and 5.29 hr*μM/(mg/kg)

From patent US20250197377A1, “NOVEL PHARMACEUTICAL SALTS AND POLYMORPHIC FORMS OF AN ERBB AND BTK INHIBITOR” (DIZAL (JIANGSU) PHARMACEUTICAL CO., LTD., priority 2021, published 2025)
